# Key:
# [1] = test system: MDA-MB-231 breast cancer tumours subcutaneously xenografted into the SCID mice; assay: Growth of MDA-MB-231 tumours xenografted into SCID mice; format: in vivo; settings: CuET 1 mg/kg i.p., 5 days ON and 2 days OFF
# Description: To test directly effect of CuET-albumin nanoparticles we used MDA-MB-231 and AMO1 models. MDA-MB-231 was injected (5*10^6 cells were transplanted s.c.) to grow tumours in SCID mice (Anlab, CZ). Similarly, the AMO-1 xenografts were expanded in SCID mice. Each group consisted of 10 animals, each bearing two tumours. CuET was formulated as nanoparticulate system in mouse serum albumin according to Example 12 or as the neat CuET powder (obtained from TOKYO CHEMICAL […] CO., LTD.) dissolved in olive oil which is a standard formulation for non-polar compounds applied intraperitoneally in the mice experiments to final concentration 1 mg/ml. Olive oil alone and mouse serum albumin solutions were used as the vehicle controls. All solutions were applied intraperitoneally in a schedule 5 days ON and 2 days OFF, the CuET was applied in the final dose 1 mg per kg of body weight. All aspects of the animal studies met the accepted criteria for the care and experimental use of laboratory animals.
# [2] = cited from earlier work
smiles,measurement,setting,value
"CCN(CC)C(=S)[S-].CCN(CC)C(=S)[S-].[Cu+2] [neat CuET powder, bis(diethyldithiocarbamate)copper(II)]",effect on tumour growth,[1],Only the CuET-albumin nanoparticle shows significant effect
same,solubility constant in water,[2],in the range of nanograms per litre

# From patent US11766404B2, “Bioavailable dithiocarbamate-metal complex particles, method of preparation and use thereof” (priority 2018, dated 2023)
